Reference: PubChem BioAssay (NCI)
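Cultured in 96-well plates, cells were exposed to test compound for 48 hours across five concentrations. Abbreviation: GI50, concentration required for 50% inhibition of growth. TGI is the concentration that stops growth completely.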

How the values were obtained:
Test in all cases: inhibition of tumour cell growth, NCI panel, 48 h
[1] = test system: TK-10 renal
[2] = test system: SNB-19 CNS
[3] = test system: SN12C renal
[4] = test system: MCF7 breast
[5] = test system: NCI-H522 lung
[6] = test system: NCI-H226 lung
[7] = test system: OVCAR-4 ovarian
[8] = test system: KM12 colon
[9] = test system: IGROV1 ovarian
[10] = test system: UACC-257 melanoma

SMILES	GI50 [1]	TGI [1]	GI50 [2]	TGI [2]	GI50 [3]	TGI [3]	GI50 [4]	TGI [4]	GI50 [5]	TGI [5]	GI50 [6]	TGI [6]	GI50 [7]	TGI [7]	GI50 [8]	TGI [8]	GI50 [9]	TGI [9]	GI50 [10]	TGI [10]
CCCCCCCCN(CCCCCCCC)CC(O)c1cc(-c2ccccc2)nc2ccc(OC)cc12 (stereo not given)	> 100 µM	> 100 µM	54.7 µM	> 100 µM	29.7 µM	> 100 µM	38.9 µM	> 100 µM	53.4 µM	> 100 µM	> 100 µM	> 100 µM	51 µM	> 100 µM	79.9 µM	> 100 µM	> 100 µM	> 100 µM	> 100 µM	> 100 µM
O=C1/C=C/[C@@H](O)[C@@H]2C[C@@H](O)C[C@H]2/C=C/CCC[C@H](CCO)O1	0.245 µM	0.832 µM	0.377 µM	> 100 µM	0.314 µM	> 80.9 µM	0.188 µM	0.558 µM	0.211 µM	0.604 µM	0.0684 µM	0.287 µM	0.132 µM	> 100 µM	0.0584 µM	0.268 µM	0.382 µM	> 100 µM	0.0609 µM	> 100 µM
COc1cc2c(cc1OC)C(Cl)C(c1ccc(Br)cc1)=C2Cl (stereo not given)		23.6 µM		32 µM		25.4 µM		21.2 µM		12.8 µM		> 55.1 µM		63.5 µM		34.6 µM		31.8 µM		31.6 µM
O=C1c2ccccc2C(=O)N1CC#CCO		> 100 µM		> 100 µM		> 100 µM				> 100 µM		> 100 µM		> 100 µM		> 100 µM				> 100 µM
O=C(Nc1ccc(Br)cc1)C(=O)C(C(=O)c1ccc(Cl)c(Cl)c1)C1OC(=O)c2ccccc21 (stereo not given)		51.6 µM		97.8 µM		68.3 µM				47.9 µM		20.6 µM		50.5 µM		31.8 µM		42.8 µM		38.9 µM
CC(C)N1CC2CC(CN(C(=O)c3ccc(Cl)cc3)C2)C1		> 100 µM		> 100 µM		> 100 µM				> 100 µM		> 100 µM		> 100 µM		> 100 µM		> 100 µM		> 100 µM
C[C@]12CC[C@H]3[C@@H](CC[C@]4(O)C[C@@H](O)CC[C@]34C=O)[C@@]1(O)CC[C@@H]2C1=CC(=O)OC1		1.63 µM		4.87 µM		1.8 µM				1.4 µM		2.69 µM		2.33 µM		6.66 µM		19.6 µM		2.5 µM
Cc1ccc(/C=C2\CCCCC2=O)cc1		> 100 µM				> 100 µM								> 100 µM				> 100 µM		
Nc1ccc(C#Cc2ccccc2C#CCCCCO)cc1	21.6 µM	46.5 µM	17.5 µM	31.3 µM	6.26 µM	20 µM	23.5 µM	52.2 µM	15.7 µM	29.5 µM	17.5 µM	40.5 µM	16.7 µM	32.6 µM	15.9 µM	33.4 µM	16.1 µM	30.2 µM	18.9 µM	33.8 µM
Cc1cc(I)cc(CN(C)CCCN2CCC(C)CC2)c1O	14.7 µM	29.2 µM	16.4 µM	34 µM	24 µM	93.4 µM	14.2 µM	28.2 µM	16.4 µM	32.2 µM	17.2 µM	39.1 µM	13.1 µM	31.7 µM	13.1 µM	27.9 µM	13.6 µM	29.1 µM	11.8 µM	25.3 µM
CC(C)[C@@H](C(=O)O[C@@H]1/C=C/C(=O)O[C@@H](C)CCC/C=C/[C@@H]2C[C@H](O)C[C@H]21)N(C)C	12.4 µM	51.4 µM	37 µM	> 100 µM	28.4 µM	> 62.1 µM	11.9 µM	43.1 µM	26.6 µM	> 75 µM	9.21 µM	36.4 µM	9.09 µM	> 61.9 µM	2.91 µM	10.2 µM	30.3 µM	> 89 µM	20.8 µM	> 81.9 µM
COC(=O)C1=C(C)NC(=S)NC1c1ccc(N(CCCl)CCCl)cc1Cl (stereo not given)		98.6 µM		> 100 µM		> 100 µM		66.1 µM		81.9 µM		> 45.7 µM		> 84.1 µM		> 73.4 µM		> 89.1 µM		44.5 µM
Cc1cc(-c2ccccc2)nc(Nc2cc3ccccc3[nH]2)n1		> 100 µM		> 100 µM		> 100 µM				> 100 µM		> 100 µM		> 100 µM		> 100 µM		> 100 µM		> 100 µM
CCC(=O)NC1=C(Cl)C(=O)C(NC(=O)CC)=C(Cl)C1=O	6.91 µM	15.4 µM	> 41 µM	> 55.7 µM	17.7 µM	31.9 µM	9.51 µM	28.3 µM	5.86 µM	10.7 µM	> 45.6 µM	> 62.1 µM	14.4 µM	29 µM	> 43.9 µM	> 57.8 µM	20.6 µM	37 µM	14.8 µM	28.3 µM
CN1C(=O)N(C)C2C1NC(=S)N2/N=C/C=C/c1ccccc1[N+](=O)[O-] (stereo not given)			0.952 µM	> 100 µM	6.82 µM	> 100 µM	0.409 µM	> 100 µM	0.318 µM	9.65 µM	17.5 µM	> 100 µM	> 100 µM	> 100 µM	0.774 µM	> 100 µM	2.48 µM	> 100 µM	> 100 µM	> 100 µM
CCCCCCC(=O)NC1=C(N2CC2)C(=O)C(NC(=O)CCCCCC)=C(N2CC2)C1=O	20.2 µM	72.9 µM	12.9 µM	> 100 µM			2.06 µM	> 100 µM			> 100 µM	> 100 µM	3.11 µM	> 100 µM	3.12 µM	> 100 µM	2.31 µM	> 100 µM		
